This data set in a line: Pygas-water partition coefficient determination (simulated pygas / de-ionized water, HPLC-MS). Type of data set: physicochemical. Conditions: for [sBuPDA] (ppm) in Undiluted Phase, Average / [HTMPOH] (ppm) in Undiluted Phase, Average / [HTMPO] (ppm) in Undiluted Phase, Average: average of 3 trials ± standard uncertainty; for [sBuPDA] (ppm) in Undiluted Phase / [HTMPOH] (ppm) in Undiluted Phase / [HTMPO] (ppm) in Undiluted Phase: individual trials 1-3; for Partition Ratio (pygas/aqueous): simulated pygas vs de-ionized water, ± standard uncertainty; for [HTMPO] (ppm) in Undiluted Phase: inhibitor 1.0 wt % total. How it is done:
Pygas-water partition coefficients are determined by measuring the concentration of a polymerization inhibitor in a pygas-water mixture. In some embodiments, a pygas from an actual process water sample is used as the pygas in the determination; in some such embodiments, an actual process water is used. In other embodiments, a simulated pygas is formed and water is added to the simulated pygas for the determination. For purposes of providing measurements related to the disclosures herein, a simulated pygas consisting essentially of a mixture of toluene, styrene, cyclohexane, n-hexane, and dicyclopentadiene is employed. Partition coefficient is determined by mixing equal volumes of de-ionized water and simulated pygas, then adding a potential polymerization inhibitor at a concentration range of about 0.1 wt % to 5 wt %, in some embodiments, followed by a period of vigorous mixing, then a period of standing undisturbed to allow the phases to separate; the relative concentration of a species in each phase determines the partition coefficient. For purposes of partition coefficients recited herein, the test is conducted at a target inhibitor concentration of 1 wt % (10,000 ppm) followed by vigorous mixing for 30 minutes, followed by allowing the mixture to stand substantially unperturbed for 30 minutes. The pygas and aqueous phases that result in the unperturbed mixture are separated and concentration of the potential polymerization inhibitor in each phase is quantified, for example by high performance liquid chromatography coupled with mass spectrometry analysis (HPLC-MS). The partition ratio, or partition coefficient, of the potential polymerization inhibitor between the pygas and aqueous phases is then calculated according to the formula
[formula] where P is the partition coefficient, [I]pygas is the concentration of the potential polymerization inhibitor in the pygas phase, and [I]aqueous is the concentration of potential polymerization inhibitor in the aqueous phase.
The partition ratio of the polymerization inhibitor […]-2,2,6,6-tetramethylpiperidinyl-1-oxyl (HTMPO) between pygas and aqueous phases was determined by the following procedure. HTMPO was added to a mixture of equal volumes of de-ionized water and simulated pyrolysis gasoline (pygas). The simulated pygas consisted of a mixture of toluene, styrene, cyclohexane, n-hexane, and dicyclopentadiene. The amounts of inhibitor and liquid phases used were such that the inhibitor was present at a total concentration of 1.0 wt % based on the weight of the combined phases.
The system consisting of the inhibitor, pygas phase, and aqueous phase was vigorously stirred for thirty minutes, after which time it was allowed to sit undisturbed for an additional thirty minutes. The immiscible pygas and aqueous phases were then separated.
A stock solution of known concentration of HTMPO in acetonitrile was diluted with water/acetonitrile to give five different solutions at concentrations spanning an appropriate working range of a high performance liquid chromatograph (HPLC) coupled to a mass spectrometer with an electrospray ionization (ESI) source. The five dilute solutions were analyzed as standards using HPLC-MS, and the areas of the peaks corresponding to HTMPO in these solutions were used to construct a calibration curve of peak area vs. concentration (mass fraction, ppm).
The pygas phase of unknown concentration of HTMPO, separated from the aqueous phase in the first part of the experiment, was diluted with water/acetonitrile to give a solution whose concentration was within the range of the calibration curve. The dilute pygas solution was analyzed by HPLC-MS, and the concentration of HTMPO in this pygas solution was calculated by interpolation of its HTMPO peak area into the calibration curve. The concentration of HTMPO in the original, undiluted pygas phase was calculated by applying the dilution factor to the interpolated concentration of the diluted solution. […]

The structures appear in SMILES notation. Values joined by “and” are separate entries in the source; they are usually repeats but may differ in a detail not shown here. Equal entries are not always repeated.

For `CCC(C)Nc1ccc(NC(C)CC)cc1` (stereo not drawn) [sBuPDA, N,N′-di-sec-butyl-1,4-phenylenediamine], the “[sBuPDA] (ppm) in Undiluted Phase, Average” value runs as follows: (Aqueous Phase) 0.29 ± 0.03 ppm; (Pygas Phase) 4075 ± 161.6 ppm. The “[sBuPDA] (ppm) in Undiluted Phase” value is 0.29 ppm and 0.26 ppm and 0.32 ppm (Aqueous Phase); 4218.2 ppm and 4109.2 ppm and 3900.2 ppm (Pygas Phase). Further, the “Partition Ratio (pygas/aqueous)” value (sBuPDA) is 14000 ± 2000.
Regarding `CC1(C)CC(O)CC(C)(C)N1O` [HTMPOH, 1,4-dihydroxy-2,2,6,6-tetramethylpiperidine], for the setting “Aqueous Phase”, the “[HTMPOH] (ppm) in Undiluted Phase, Average” value is given as 2829.8 ± 79.0 ppm; the “[HTMPOH] (ppm) in Undiluted Phase” value is 2807.5 ppm and 2764.3 ppm and 2917.6 ppm. Also, the “Partition Ratio (pygas/aqueous)” value (HTMPOH) was 0.0096 ± 0.0003. Besides, for the setting “Pygas Phase”, the “[HTMPOH] (ppm) in Undiluted Phase, Average” value was 27.2 ± 0.6 ppm; the “[HTMPOH] (ppm) in Undiluted Phase” value is 27.8 ppm and 26.6 ppm and 27.2 ppm.
On to `CC1(C)CC(O)CC(C)(C)N1[O]` [HTMPO, 4-hydroxy-2,2,6,6-tetramethylpiperidinyl-1-oxyl], for which the “[HTMPO] (ppm) in Undiluted Phase, Average” value (Aqueous Phase) is 7410.8 ± 453.5 ppm and the “[HTMPO] (ppm) in Undiluted Phase, Average” value (Pygas Phase) is given as 582.8 ± 47.0 ppm. For the same molecule, the “[HTMPO] (ppm) in Undiluted Phase” value was 7155.2 ppm and 7142.9 ppm and 7934.4 ppm (Aqueous Phase); 597.8 ppm and 530.2 ppm and 620.5 ppm (Pygas Phase, equal volumes de-ionized water and simulated pygas). Further, the “Partition Ratio (pygas/aqueous)” value (HTMPO) is on record as 0.079 ± 0.008.

These data come from patent US11174439B2, “Method to inhibit polymerization in a process water” (Ecolab USA, Inc., priority 2016, dated 2021).
